{"source": "paper PMC5218480", "about": "(PLoS ONE, 2017)", "system": "MV-4-11 cells", "experiment": "Gene expression microarray analysis (Affymetrix PrimeView) and GSEA", "format": "cell-based, human", "set-up": "RFU PODN (11730768_x_at) / Fold change /veh PODN (11730768_x_at) / RFU LINC00158 (11744669_a_at) / Fold change /veh LINC00158 (11744669_a_at) / RFU DUSP10 (11751237_a_at) / Fold change /veh DUSP10 (11751237_a_at) / RFU ID3 (11757404_x_at) / Fold change /veh ID3 (11757404_x_at) / RFU PLEKHG5 (11737974_s_at) / Fold change /veh PLEKHG5 (11737974_s_at) / RFU LRRC4B (11730491_at) / Fold change /veh LRRC4B (11730491_at) / RFU GIMAP4 (11747438_a_at) / Fold change /veh GIMAP4 (11747438_a_at) / RFU KRT8 (11758183_x_at) / Fold change /veh KRT8 (11758183_x_at) / RFU CNN1 (11734310_a_at) / Fold change /veh CNN1 (11734310_a_at) / RFU VPS37D (11726825_at) / Fold change /veh VPS37D (11726825_at) / RFU C10orf10 (11716522_x_at) / Fold change /veh C10orf10 (11716522_x_at) / RFU KIR2DL2 /// KIR2DL4 /// KIR2DL5A /// KIR2DL5B /// KIR2DS1 /// KIR2DS2 /// KIR2DS3 /// KIR2DS4 /// KIR3DL3 /// KIR3DL3 /// KIR3DS1 (11738374_at) / Fold change /veh KIR2DL2 /// KIR2DL4 /// KIR2DL5A /// KIR2DL5B /// KIR2DS1 /// KIR2DS2 /// KIR2DS3 /// KIR2DS4 /// KIR3DL3 /// KIR3DL3 /// KIR3DS1 (11738374_at) / RFU C1QL1 (11718748_at) / Fold change /veh C1QL1 (11718748_at) / RFU TMPRSS4 (11747572_a_at) / Fold change /veh TMPRSS4 (11747572_a_at) / RFU HAMP (11756126_x_at) / Fold change /veh HAMP (11756126_x_at) / RFU RNFT2 (11725882_a_at) / Fold change /veh RNFT2 (11725882_a_at) / RFU NR4A2 (11747474_a_at) / Fold change /veh NR4A2 (11747474_a_at) / RFU ABCC12 (11746883_a_at) / Fold change /veh ABCC12 (11746883_a_at) / RFU TMEM136 (11760407_x_at) / Fold change /veh TMEM136 (11760407_x_at) / RFU CLDN22 /// WWC2 (11732394_at) / Fold change /veh CLDN22 /// WWC2 (11732394_at) / RFU HLA-DPB1 (11760878_x_at) / Fold change /veh HLA-DPB1 (11760878_x_at) / RFU SPINT1 (11716480_a_at) / Fold change /veh SPINT1 (11716480_a_at) / RFU GAP43 (11754022_s_at) / Fold change /veh GAP43 (11754022_s_at) / RFU A4GNT (11735810_at) / Fold change /veh A4GNT (11735810_at) / RFU PRB3 (11715151_x_at) / Fold change /veh PRB3 (11715151_x_at) / RFU TUBB4B (11761932_at) / Fold change /veh TUBB4B (11761932_at) / RFU CAPN14 (11732068_a_at) / Fold change /veh CAPN14 (11732068_a_at) / RFU TMCC2 (11721928_a_at) / Fold change /veh TMCC2 (11721928_a_at) / RFU IRGQ (11745062_a_at) / Fold change /veh IRGQ (11745062_a_at) / RFU FAM174B (11720279_a_at) / Fold change /veh FAM174B (11720279_a_at) / RFU TMPRSS4 (11748680_a_at) / Fold change /veh TMPRSS4 (11748680_a_at) / RFU FAM212B (11763350_a_at) / Fold change /veh FAM212B (11763350_a_at) / RFU PLEKHG5 (11743358_a_at) / Fold change /veh PLEKHG5 (11743358_a_at) / RFU ZSCAN30 (11745921_a_at) / Fold change /veh ZSCAN30 (11745921_a_at) / RFU CMKLR1 (11741424_a_at) / Fold change /veh CMKLR1 (11741424_a_at) / RFU LOC101060620 /// MAPK8IP1 (11723275_at) / Fold change /veh LOC101060620 /// MAPK8IP1 (11723275_at) / RFU SPTSSB (11747773_x_at) / Fold change /veh SPTSSB (11747773_x_at) / RFU PRSS12 (11739890_at) / Fold change /veh PRSS12 (11739890_at) / RFU BIN1 (11741810_x_at) / Fold change /veh BIN1 (11741810_x_at) / RFU WNT11 (11732464_a_at) / Fold change /veh WNT11 (11732464_a_at) / RFU C10orf10 (11716521_a_at) / Fold change /veh C10orf10 (11716521_a_at) / RFU C5orf56 (11738089_at) / Fold change /veh C5orf56 (11738089_at) / RFU CYB561 (11721691_x_at) / Fold change /veh CYB561 (11721691_x_at) / RFU ANKRD19P (11752326_a_at) / Fold change /veh ANKRD19P (11752326_a_at) / RFU OR2T12 /// OR2T33 /// OR2T8 (11738714_s_at) / Fold change /veh OR2T12 /// OR2T33 /// OR2T8 (11738714_s_at) / RFU VCAN (11748164_a_at) / Fold change /veh VCAN (11748164_a_at) / RFU JSRP1 (11732532_at) / Fold change /veh JSRP1 (11732532_at) / RFU KRTAP10-11 (11738290_x_at) / Fold change /veh KRTAP10-11 (11738290_x_at) / RFU MYO3A (11730013_a_at) / Fold change /veh MYO3A (11730013_a_at) / RFU EBF3 (11725865_a_at) / Fold change /veh EBF3 (11725865_a_at) / RFU CAMK2N1 (11719241_x_at) / Fold change /veh CAMK2N1 (11719241_x_at) / RFU C5orf56 (11738088_a_at) / Fold change /veh C5orf56 (11738088_a_at) / RFU OLFML3 (11715873_a_at) / Fold change /veh OLFML3 (11715873_a_at) / RFU LOC100653217 /// NTM (11731650_a_at) / Fold change /veh LOC100653217 /// NTM (11731650_a_at) / RFU MAPK11 (11762145_a_at) / Fold change /veh MAPK11 (11762145_a_at) / RFU FIZ1 (11724087_x_at) / Fold change /veh FIZ1 (11724087_x_at) / RFU OASL (11726364_x_at) / Fold change /veh OASL (11726364_x_at) / RFU SOX15 (11748057_x_at) / Fold change /veh SOX15 (11748057_x_at) / RFU CD79A (11719716_a_at) / Fold change /veh CD79A (11719716_a_at) / RFU HIST1H1D (11736915_at) / Fold change /veh HIST1H1D (11736915_at) / RFU CASKIN2 (11723855_a_at) / Fold change /veh CASKIN2 (11723855_a_at) / RFU LOC730098 (11760151_x_at) / Fold change /veh LOC730098 (11760151_x_at) / RFU OR4N2 (11742367_at) / Fold change /veh OR4N2 (11742367_at) / RFU PRRT2 (11749266_a_at) / Fold change /veh PRRT2 (11749266_a_at) / RFU SNX32 (11753110_a_at) / Fold change /veh SNX32 (11753110_a_at) / RFU CDHR5 (11726645_a_at) / Fold change /veh CDHR5 (11726645_a_at) / RFU RCAN1 (11760418_a_at) / Fold change /veh RCAN1 (11760418_a_at) / RFU FAM167A (11723789_a_at) / Fold change /veh FAM167A (11723789_a_at) / RFU FAM26E (11764081_at) / Fold change /veh FAM26E (11764081_at) / RFU ISYNA1 (11749810_s_at) / Fold change /veh ISYNA1 (11749810_s_at) / RFU ACY1 (11761880_at) / Fold change /veh ACY1 (11761880_at) / RFU 11764098_at / Fold change /veh 11764098_at / RFU SAMD14 (11745864_x_at) / Fold change /veh SAMD14 (11745864_x_at) / RFU NPB (11741838_a_at) / Fold change /veh NPB (11741838_a_at) / RFU TMPRSS6 (11731388_a_at) / Fold change /veh TMPRSS6 (11731388_a_at) / RFU KRTAP10-2 (11738614_at) / Fold change /veh KRTAP10-2 (11738614_at) / RFU ARHGAP8 /// PRR5-ARHGAP8 (11727945_x_at) / Fold change /veh ARHGAP8 /// PRR5-ARHGAP8 (11727945_x_at) / RFU KRTAP5-7 /// NADSYN1 (11734609_at) / Fold change /veh KRTAP5-7 /// NADSYN1 (11734609_at) / RFU RASL12 (11751679_a_at) / Fold change /veh RASL12 (11751679_a_at) / RFU CDKN2B (11736163_a_at) / Fold change /veh CDKN2B (11736163_a_at) / RFU PRF1 (11729649_at) / Fold change /veh PRF1 (11729649_at) / RFU, ZNF638 /// ZNF638-IT1 / Fold change vs veh, ZNF638 /// ZNF638-IT1 / RFU, PANK3 / Fold change vs veh, PANK3 / RFU, SH3YL1 / Fold change vs veh, SH3YL1 / RFU, ZEB2 / Fold change vs veh, ZEB2 / RFU, NRIP1 / Fold change vs veh, NRIP1 / RFU, PTTG1IP / Fold change vs veh, PTTG1IP / RFU, CAPN2 / Fold change vs veh, CAPN2 / RFU, MED14 / Fold change vs veh, MED14 / RFU, SNORA58 / Fold change vs veh, SNORA58 / RFU, C1orf63 / Fold change vs veh, C1orf63 / RFU, LRRFIP1 / Fold change vs veh, LRRFIP1 / RFU, NDUFAF7 / Fold change vs veh, NDUFAF7 / RFU, SLC12A2 / Fold change vs veh, SLC12A2 / RFU, IBTK / Fold change vs veh, IBTK / RFU, ESF1 / Fold change vs veh, ESF1 / Fold change vs veh, TMEM50B / RFU, TAOK1 / Fold change vs veh, TAOK1 / RFU, ACBD3 / Fold change vs veh, ACBD3 / RFU, TMA16 / Fold change vs veh, TMA16 / RFU, RWDD3 / Fold change vs veh, RWDD3 / RFU, BCAT1 / Fold change vs veh, BCAT1 / RFU, EDEM3 / Fold change vs veh, EDEM3 / RFU, TMEM33 / Fold change vs veh, TMEM33 / RFU, WDR75 / Fold change vs veh, WDR75 / RFU, AHCTF1 / Fold change vs veh, AHCTF1 / RFU, TFRC / Fold change vs veh, TFRC / RFU, ZDHHC17 / Fold change vs veh, ZDHHC17 / RFU, NOM1 / Fold change vs veh, NOM1 / RFU, ARL8B / Fold change vs veh, ARL8B / RFU, ZBTB11 / Fold change vs veh, ZBTB11 / RFU, TAMM41 / Fold change vs veh, TAMM41 / RFU, KIAA1704 /// LOC100996395 / Fold change vs veh, KIAA1704 /// LOC100996395 / RFU, ING1 / Fold change vs veh, ING1 / RFU, TRMT61B / Fold change vs veh, TRMT61B / RFU, FUBP3 / Fold change vs veh, FUBP3 / RFU, TP53 / Fold change vs veh, TP53 / RFU, TNKS2 / Fold change vs veh, TNKS2 / RFU, ZFP14 / Fold change vs veh, ZFP14 / RFU, ACTR2 / Fold change vs veh, ACTR2 / RFU, PPP3R1 / Fold change vs veh, PPP3R1 / RFU, PIK3R1 / Fold change vs veh, PIK3R1 / RFU, HNRNPA1 / Fold change vs veh, HNRNPA1 / RFU, RNF170 / Fold change vs veh, RNF170 / RFU, ZNF28 / Fold change vs veh, ZNF28 / RFU, RNGTT / Fold change vs veh, RNGTT / RFU, OGT / Fold change vs veh, OGT / RFU, BRD1 / Fold change vs veh, BRD1 / RFU, MARS / Fold change vs veh, MARS / RFU, ZNF655 / Fold change vs veh, ZNF655 / RFU, FAHD1 / Fold change vs veh, FAHD1 / RFU, BDP1 / Fold change vs veh, BDP1 / RFU, LRRCC1 / Fold change vs veh, LRRCC1 / RFU, ARID1A / Fold change vs veh, ARID1A / RFU, ZNF146 / Fold change vs veh, ZNF146 / RFU, ZNF330 / Fold change vs veh, ZNF330 / RFU, GPN3 / Fold change vs veh, GPN3 / RFU, C9orf123 / Fold change vs veh, C9orf123 / RFU, N4BP2L2 / Fold change vs veh, N4BP2L2 / RFU, ARFIP1 / Fold change vs veh, ARFIP1 / RFU, FAM179B / Fold change vs veh, FAM179B / RFU, BCL10 / Fold change vs veh, BCL10 / RFU, UHRF1BP1L / Fold change vs veh, UHRF1BP1L / RFU, BET1 / Fold change vs veh, BET1 / RFU, CNOT2 / Fold change vs veh, CNOT2 / RFU, ZNF268 / Fold change vs veh, ZNF268 / Fold change vs veh, ZNF507 / RFU, DGCR2 / Fold change vs veh, DGCR2 / RFU, WDSUB1 / Fold change vs veh, WDSUB1 / Fold change vs veh, HSP90B1 /// MIR3652 / RFU, ADSS / Fold change vs veh, ADSS / RFU, GK / Fold change vs veh, GK / RFU, ZNF148 / Fold change vs veh, ZNF148 / RFU, TAF9 / Fold change vs veh, TAF9 / RFU, SLC1A5 / Fold change vs veh, SLC1A5 / RFU, SLMO2 / Fold change vs veh, SLMO2 / RFU, ABCC4 / Fold change vs veh, ABCC4 / RFU, LOC101060439 /// RAP1B / Fold change vs veh, LOC101060439 /// RAP1B / RFU, RFX7 / Fold change vs veh, RFX7 / RFU, GTPBP10 / Fold change vs veh, GTPBP10 / RFU, CNEP1R1 / Fold change vs veh, CNEP1R1 / RFU, BIVM-ERCC5 /// ERCC5 / Fold change vs veh, BIVM-ERCC5 /// ERCC5 / RFU, ILF3 / Fold change vs veh, ILF3 / RFU 11762660_at / Fold change /veh 11762660_at / RFU VCAN (11757783_s_at) / Fold change /veh VCAN (11757783_s_at) / RFU DDX43 (11728927_at) / Fold change /veh DDX43 (11728927_at) / RFU KRT8 (11758188_x_at) / Fold change /veh KRT8 (11758188_x_at) / RFU NKD1 (11759106_at) / Fold change /veh NKD1 (11759106_at) / RFU SRD5A1 (11742802_a_at) / Fold change /veh SRD5A1 (11742802_a_at) / RFU TPSAB1 /// TPSB2 (11721975_s_at) / Fold change /veh TPSAB1 /// TPSB2 (11721975_s_at) / RFU GSTM3 (11746129_a_at) / Fold change /veh GSTM3 (11746129_a_at) / RFU IL23R (11737362_x_at) / Fold change /veh IL23R (11737362_x_at) / RFU TMEM51 (11727254_a_at) / Fold change /veh TMEM51 (11727254_a_at) / RFU PIWIL2 (11732686_x_at) / Fold change /veh PIWIL2 (11732686_x_at) / RFU ORM1 (11744905_x_at) / Fold change /veh ORM1 (11744905_x_at) / RFU CCDC152 (11743942_at) / Fold change /veh CCDC152 (11743942_at) / RFU ECM1 (11717891_a_at) / Fold change /veh ECM1 (11717891_a_at) / RFU IL23R (11748794_a_at) / Fold change /veh IL23R (11748794_a_at) / RFU TNFAIP8L3 (11732012_x_at) / Fold change /veh TNFAIP8L3 (11732012_x_at) / RFU MBOAT4 (11741988_at) / Fold change /veh MBOAT4 (11741988_at) / RFU 11764193_at / Fold change /veh 11764193_at / RFU TMEM53 (11763286_at) / Fold change /veh TMEM53 (11763286_at) / RFU MAGEB2 (11727129_at) / Fold change /veh MAGEB2 (11727129_at) / RFU TMEM200A (11744735_a_at) / Fold change /veh TMEM200A (11744735_a_at) / RFU CCDC152 (11751479_a_at) / Fold change /veh CCDC152 (11751479_a_at) / RFU FAM211A (11726209_a_at) / Fold change /veh FAM211A (11726209_a_at) / RFU RGS16 (11746705_a_at) / Fold change /veh RGS16 (11746705_a_at) / RFU VCAN (11755009_s_at) / Fold change /veh VCAN (11755009_s_at) / RFU RHOB (11743442_s_at) / Fold change /veh RHOB (11743442_s_at) / RFU RGS16 (11720943_a_at) / Fold change /veh RGS16 (11720943_a_at) / RFU RGS16 (11720944_at) / Fold change /veh RGS16 (11720944_at) / RFU, VPS4B / Fold change vs veh, VPS4B / RFU, CREB1 / Fold change vs veh, CREB1 / RFU, DNAJC13 / Fold change vs veh, DNAJC13 / RFU, GNAQ / Fold change vs veh, GNAQ / RFU, CDK5R1 / Fold change vs veh, CDK5R1 / RFU, ZRANB3 / Fold change vs veh, ZRANB3 / RFU, CUL4A / Fold change vs veh, CUL4A / RFU, CCNY / Fold change vs veh, CCNY / RFU, UFL1 / Fold change vs veh, UFL1 / RFU, COG3 / Fold change vs veh, COG3 / RFU, DIAPH2 / Fold change vs veh, DIAPH2 / RFU, SKA2 / Fold change vs veh, SKA2 / RFU, AFF3 / Fold change vs veh, AFF3 / RFU, LMF1 / Fold change vs veh, LMF1 / RFU, IPO11 / Fold change vs veh, IPO11 / RFU, DFFB / Fold change vs veh, DFFB / RFU, FOXP1 / Fold change vs veh, FOXP1 / RFU, CARD8 / Fold change vs veh, CARD8 / RFU, STRN3 / Fold change vs veh, STRN3 / RFU, ADK / Fold change vs veh, ADK / RFU, RASSF2 / Fold change vs veh, RASSF2 / RFU, WIPF1 / Fold change vs veh, WIPF1 / RFU, LARP1B / Fold change vs veh, LARP1B / RFU, RASA1 / Fold change vs veh, RASA1 / RFU, RB1 / Fold change vs veh, RB1 / RFU, PPFIA1 / Fold change vs veh, PPFIA1 / RFU, MAT2A / Fold change vs veh, MAT2A / RFU, CCT5 / Fold change vs veh, CCT5 / RFU, WDR92 / Fold change vs veh, WDR92 / RFU, CUX1 / Fold change vs veh, CUX1 / RFU, TTC7A / Fold change vs veh, TTC7A / RFU, TMEM135 / Fold change vs veh, TMEM135 / RFU, DEPTOR / Fold change vs veh, DEPTOR / RFU, CPM / Fold change vs veh, CPM / RFU, DNAJB6 / Fold change vs veh, DNAJB6 / RFU, CACNA2D3 / Fold change vs veh, CACNA2D3 / RFU, DTX4 / Fold change vs veh, DTX4 / RFU, TFCP2 / Fold change vs veh, TFCP2 / RFU, GMCL1 /// GMCL1P1 / Fold change vs veh, GMCL1 /// GMCL1P1 / RFU, AEBP2 / Fold change vs veh, AEBP2 / RFU, SNHG1 /// SNORD22 /// SNORD25 /// SNORD26 /// SNORD27 /// SNORD28 /// SNORD29 /// SNORD31 / Fold change vs veh, SNHG1 /// SNORD22 /// SNORD25 /// SNORD26 /// SNORD27 /// SNORD28 /// SNORD29 /// SNORD31 / Fold change (Aza/veh), C12orf56 (ProbeSet 11735607_a_at) / Fold change (ACY-1035/veh), C12orf56 (ProbeSet 11735607_a_at) / Fold change (Aza/veh), FGFR1OP (ProbeSet 11751329_s_at) / Fold change (ACY-1035/veh), FGFR1OP (ProbeSet 11751329_s_at) / Fold change (Aza/veh), VPS36 (ProbeSet 11739960_a_at) / Fold change (ACY-1035/veh), VPS36 (ProbeSet 11739960_a_at) / RFU SYPL1 (11715823_x_at) / Fold change /veh SYPL1 (11715823_x_at) / RFU IGFBP7 (11715501_s_at) / Fold change /veh IGFBP7 (11715501_s_at) / RFU REEP3 (11722064_at) / Fold change /veh REEP3 (11722064_at) / RFU IGLL1 (11728026_x_at) / Fold change /veh IGLL1 (11728026_x_at): dose or concentration left out as unconfirmed", "conditions": "ProbeSet 11729173_a_at; LIST D", "data": [{"compound": "Nc1ccc(-c2cccs2)cc1NC(=O)c1ccc2c(c1)cc(C1CC1)n2CCN1CCOCC1", "note": "[ACY-1035]", "values": [{"measurement": "Fold change vs veh, SKA2", "result": 0.84}]}]}
